Patent US10125137B2, “Benzofurans substituted with bicyclic secondary benzamide as HCV inhibitors” (BRISTOL-MYERS SQUIBB COMPANY, priority 2015, dated 2018)
Read-outs that look alike come from different tables or passages of the source.

Legend:
[1] = system: genotype 1b (Con-1) HCV replicon; assay: HCV Replicon Luciferase Assay; assay type: cell-based; conditions: Hepatitis C virus, 72 h, genotype 1b HCV replicon, Huh-7, Renilla luciferase, 3 days
Protocol: Cell Lines. The cell lines used to evaluate compounds consist of a human hepatocyte derived cell line (Huh-7) that constitutively expresses a genotype 1b (Con-1) HCV replicon or a genotype 1b (Con-1) HCV replicon with an asparagine replacing the cysteine at amino acid 316, or a genotype 2a (JFH-1) replicon, containing a Renilla luciferase reporter gene. These cells were maintained in Dulbecco's modified Eagle medium (DMEM) containing 10% FBS, 100 U/mL penicillin/streptomycin and 1.0 mg/mL G418.
HCV Replicon Luciferase Assay. To evaluate compound efficacy, titrated compounds were transferred to sterile 384-well tissue culture treated plates, and the plates were seeded with HCV replicon cells (50 μL at a density of 2.4×10^3 cells/well) in DMEM containing 4% FBS (final DMSO concentration at 0.5%). After 3 days incubation at 37° C., cells were analyzed for Renilla Luciferase activity using the EnduRen substrate (Promega cat #E6485) according to the manufacturer's directions. Briefly, the EnduRen substrate was diluted in DMEM and then added to the plates to a final concentration of 7.5 μM. The plates were incubated for at least 1 h at 37° C. then read on a Viewlux Imager (PerkinElmer) using a luminescence program. The 50% effective concentration (EC50) was calculated using the four-parameter logistic formula noted above.

[2] = extended dosing of combination regimens with interferon and ribavirin; cited from earlier work
HCV = conditions: single agent: transient decrease then rebound; cited from earlier work

| SMILES | EC50 ([1]; read-out: EC50 1b (class)) | further results |
| --- | --- | --- |
| CNC(=O)c1c(-c2ccc(F)cc2)oc2cc(N(CCF)S(C)(=O)=O)c(-c3cccc(C(=O)N4CCc5nc[nH]c5C4)c3)cc12 [Compound 1003] | > 1 µM |  |
| CNC(=O)c1c(-c2ccc(F)cc2)oc2cc(N(CCO)S(C)(=O)=O)c(C3CC3)cc12 [HCV-796] |  | hepatic toxicity [2]: hepatic toxicity; HCV RNA levels in patients (HCV): reduce HCV RNA levels |
| CNC(=O)c1c(-c2ccc(F)cc2)oc2cc(N(CCF)S(C)(=O)=O)c(-c3cccc(C(=O)N4CCn5c(nnc5C(F)(F)F)C4)c3)cc12 [Compound 1002] | 0.1 to 1 µM |  |
| CNC(=O)c1c(-c2ccc(F)cc2)oc2cc(N(CCF)S(C)(=O)=O)c(-c3cccc(C(=O)N4CCc5[nH]ncc5C4)c3)cc12 [Compound 1004] | 0.1 to 1 µM | EC50 ([1]; read-out: EC50 (uM) 1b): 0.975 µM |
| CNC(=O)c1c(-c2ccc(F)cc2)oc2cc(N(CCF)S(C)(=O)=O)c(-c3cccc(C(=O)N4CCn5cccc5C4c4cccnc4)c3)cc12 (stereo not drawn) [Compound 1005] | < 0.1 µM |  |
| CNC(=O)c1c(-c2ccc(F)cc2)oc2cc(N(CCF)S(C)(=O)=O)c(-c3cccc(C(=O)N4CCn5cc(C(F)(F)F)nc5C4)c3)cc12 [Compound 1001] | < 0.1 µM | EC50 ([1]; read-out: EC50 (uM) 1b): 0.0349 µM |
| CNC(=O)c1c(-c2ccc(F)cc2)oc2cc(N(CCF)S(C)(=O)=O)c(-c3cccc(C(=O)N4CCC5(CCN(C(=O)OC(C)(C)C)C5)C4)c3)cc12 (stereo not drawn) [Compound 1008] | < 0.1 µM | EC50 ([1]; read-out: EC50 (uM) 1b): 0.0964 µM |
| CNC(=O)c1c(-c2ccc(F)cc2)oc2cc(N(CCF)S(C)(=O)=O)c(-c3cccc(C(=O)N4[C@H](C(N)=O)C[C@@H]5C[C@@H]54)c3)cc12 [Compound 1007] | > 1 µM |  |
| CNC(=O)c1c(-c2ccc(F)cc2)oc2cc(N(CCF)S(C)(=O)=O)c(-c3cccc(C(=O)N4CC5CCN(C(=O)OC(C)(C)C)CC5C4)c3)cc12 (stereo not drawn) [Compound 1010] | < 0.1 µM |  |
| CNC(=O)c1c(-c2ccc(F)cc2)oc2cc(N(CCF)S(C)(=O)=O)c(-c3cccc(C(=O)N4CCC5CC54)c3)cc12 (stereo not drawn) [Compound 1006] | < 0.1 µM |  |
| CNC(=O)c1c(-c2ccc(F)cc2)oc2cc(N(CCF)S(C)(=O)=O)c(-c3cccc(C(=O)N4CC5CCN(C(=O)OC(C)(C)C)C5C4)c3)cc12 (stereo not drawn) [Compound 1009] | 0.1 to 1 µM |  |
